PMC6222496 (Molecules : A Journal of Synthetic Chemistry and Natural …, 2018)
Like-named read-outs stand apart in the source and are kept apart here.

How the values were obtained:
[1] = tested on: rats; settings: cited from earlier work
[2] = tested on: rats; settings: 0.1 mg/kg; cited from earlier work
[3] = tested on: rats; settings: cited from earlier work; for pro-depressive effects: 2-ethoxymethyl ether Sal B 0.3 mg/kg, β-tetrahydropyran Sal B 2 mg/kg
[4] = tested on: human KOPr; settings: cited from earlier work
[5] = tested on: rat KOPr; settings: cited from earlier work
[6] = tested on: B6.SJL mice; settings: cited from earlier work; for duration of action (antinociceptive effects): 1 mg/kg
[7] = tested on: B6.SJL mice; settings: cited from earlier work
[8] = tested on: rhesus monkeys; settings: rhesus monkey, in vivo; cited from earlier work
[9] = tested on: mice; settings: Sal A 3–10 mg/kg, for 30 min; cited from earlier work
[10] = tested on: Sprague Dawley rats; settings: rat, in vivo
[11] = molecular target: T1, KOPr (Homo sapiens, UniProt P41145); assay: cell-based
T1 construct: host or cells: CHO (HitHunter cell line)
T1 sequence (P41145 whole entry): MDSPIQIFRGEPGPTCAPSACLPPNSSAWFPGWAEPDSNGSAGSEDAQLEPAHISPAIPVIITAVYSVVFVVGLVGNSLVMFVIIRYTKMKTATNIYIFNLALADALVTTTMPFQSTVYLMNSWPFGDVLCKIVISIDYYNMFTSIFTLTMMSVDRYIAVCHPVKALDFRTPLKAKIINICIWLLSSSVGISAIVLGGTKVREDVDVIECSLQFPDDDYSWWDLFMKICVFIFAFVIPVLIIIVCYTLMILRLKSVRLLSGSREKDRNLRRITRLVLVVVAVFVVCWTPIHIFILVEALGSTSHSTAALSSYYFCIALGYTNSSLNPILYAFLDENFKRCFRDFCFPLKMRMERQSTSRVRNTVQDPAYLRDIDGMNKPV

[12] = molecular target: T2, hKOR (Homo sapiens, UniProt P41145); assay: cell-based; assay type: cell-based
T2 construct: host or cells: U2OS (PathHunter U2OS-hKOR-βarrestin2-DX)
T2 sequence (P41145 whole entry): as above
T2 sequence (P32121 whole entry partner): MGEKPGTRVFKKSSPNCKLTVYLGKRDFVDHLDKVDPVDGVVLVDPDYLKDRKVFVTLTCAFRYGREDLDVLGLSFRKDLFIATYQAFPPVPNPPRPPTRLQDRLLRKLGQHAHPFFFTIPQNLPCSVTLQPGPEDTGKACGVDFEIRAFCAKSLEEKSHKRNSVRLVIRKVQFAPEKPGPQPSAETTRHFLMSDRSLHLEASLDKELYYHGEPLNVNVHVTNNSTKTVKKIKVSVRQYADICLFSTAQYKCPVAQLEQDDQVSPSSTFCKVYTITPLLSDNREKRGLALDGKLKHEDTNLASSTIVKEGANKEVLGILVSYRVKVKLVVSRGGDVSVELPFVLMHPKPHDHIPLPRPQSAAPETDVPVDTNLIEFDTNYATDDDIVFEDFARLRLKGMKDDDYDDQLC

[13] = tested on: Sprague-Dawley rats; assay: Cocaine-induced hyperactivity; assay type: in vivo, rat; settings: 0.3 mg/kg i.p., 45 min prior to cocaine 20 mg/kg
[14] = tested on: Sprague-Dawley rats; assay: Expression of behavioral sensitization to cocaine; assay type: in vivo, rat; settings: 0.3 mg/kg i.p. on day 10, 45 min before cocaine 20 mg/kg
[15] = tested on: B6.SJL mice; settings: mouse, in vivo; for EC50 (antinociception, % MPE): sc
[16] = tested on: B6.SJL mice; assay type: in vivo, mouse
[17] = tested on: Sprague Dawley rats; assay: Sucrose self-administration / sucrose intake; assay type: in vivo, rat; settings: 0.3 and 1.0 mg/kg i.p., 45 min pretreatment
Procedure: For sucrose reinforcement tests, rats were maintained at approximately 85% of their initial feeding weights with free access to water throughout the experiment. Rats were trained to orally self-administer a 10% sucrose solution in eight modular test chambers (Med Associates) as previously described. Rats were trained to self-administer sucrose orally using an auto-shaping procedure (45 min daily for ten days). Once stable responding was achieved, the animals were maintained on a Fixed Ratio 1 (FR1) schedule of reinforcement where depression of the active lever (left lever) led to the delivery of sucrose solution. Following oral acquisition, the response requirements were increased to an FR5 schedule of reinforcement. Daily 1 h sessions were conducted until there was less than 20% variation in responding for three consecutive days. The animals on stable FR5 reinforcements were subjected to the sucrose reinforcement test. On the test day, rats received either vehicle (75% DMSO, 1 mL/kg, i.p.) or Mesyl Sal B (0.3, 1.0 mg/kg, i.p.) and 45 min later, sucrose reinforced lever-press responding was recorded for 60 min.

[18] = tested on: rats; assay: Forced swim test; assay type: in vivo, rat; settings: 0.3 mg/kg i.p., 45 min before test
Procedure: The FST apparatus consisted of a cylinder (44 cm high and 20 cm in diameter) filled to 35 cm with water maintained at 25 ± 1 °C. On the habituation day, the rats were placed in the swim chamber for 15 min and the following day were administered either with Mesyl Sal B (0.3 mg/kg, i.p.) or the vehicle (75% DMSO, 1 mL/kg, i.p.) and placed in the swim chamber45 min later. The forced swimming behavior was recorded by a video camera and the climbing, swimming, or immobility behaviors were recorded for 5 min. Data were analyzed using the SMART software (version 3.0; PanLab, Barcelona, Spain).

[19] = molecular target: human KOPr; settings: cited from earlier work; remark: listed apart in the source
[20] = tested on: mice
[21] = tested on: rats; settings: rat, in vivo
[22] = tested on: rats
[23] = tested on: rats; remark: listed apart in the source
[24] = tested on: mice; parameters: method as in PMID 28263712; settings: chronic escalation drinking; cited from earlier work
[25] = tested on: mice; parameters: method as in PMID 28263712; settings: 3 mg/kg; cited from earlier work
[26] = tested on: drug naïve rats; settings: cited from earlier work
[27] = tested on: Sprague-Dawley rats; settings: rat, in vivo; cited from earlier work
[28] = tested on: Sprague-Dawley rats; settings: rat, in vivo; cited from earlier work; remark: listed apart in the source
[29] = tested on: rats; settings: 0.16 mg/kg; cited from earlier work
[30] = molecular target: T1, KOPr; parameters: method as in PMID 25320048; settings: human embryonic kidney cells; cited from earlier work
[31] = tested on: Sprague Dawley rats; settings: rat, in vivo; cited from earlier work
[32] = tested on: rats; settings: 0.3 mg/kg; cited from earlier work
[33] = tested on: mice; settings: mouse, in vivo; cited from earlier work
[34] = tested on: Rhesus macaques; settings: 0.01–0.1 mg/kg i.v.; cited from earlier work
[35] = tested on: mice; settings: 1–3.2 mg/kg; cited from earlier work
[36] = tested on: P-glycoprotein efflux pump; settings: cited from earlier work
[37] = 2 mg/kg i.p., 5 min before formaldehyde

## CCOCO[C@H]1C[C@@H](C(=O)OC)[C@]2(C)CC[C@H]3C(=O)O[C@H](c4ccoc4)C[C@]3(C)[C@H]2C1=O [2-ethoxymethyl ether Sal B]
[1]; rats
  cocaine-prime induced cocaine seeking: attenuate
[2]
  aversive effects in the CPA paradigm: did not show aversive effects
[3]
  pro-depressive effects: did not

## CN(C(=O)/C=C/c1ccoc1)[C@@H]1CC[C@@]2(O)[C@H]3Cc4ccc(O)c5c4[C@@]2(CCN3CC2CC2)[C@H]1O5 [nalfurafine]
[4]
  signaling bias: extreme G-protein biased signaling
[5]
  signaling bias: bias to a much lesser extent

## COC(=O)[C@@H]1C[C@H](OC2CCCCO2)C(=O)[C@H]2[C@@]1(C)CC[C@H]1C(=O)O[C@H](c3ccoc3)C[C@]21C (stereo partly drawn) [β-tetrahydropyran Sal B]
[6]; compared with Sal A
  potency and efficacy, cumulative dose-response: more potent and more efficacious than Sal A
[7]; intraplantar 2% formaldehyde
  antinociceptive effects: potent antinociceptive effects
[1]; rats
  cocaine-prime induced cocaine seeking: attenuate
[3]
  pro-depressive effects: did not

## CCC12CCN(CC3(O)CC3)C(Cc3ccc(O)cc31)C2(C)C (stereo not drawn) [bremazocine]
[8]
  cocaine self-administration: decreased
  food reinforcements: decreased

## RB-64
[9]
  motor coordination in rotarod performance test: did not cause any motor deficits

## Oc1ccc2c3c1O[C@H]1c4[nH]c5c(c4C[C@@]4(O)[C@@H](C2)N(CC2CC2)CC[C@]314)C[C@@]1(O)[C@H]2Cc3ccc(O)c4c3[C@@]1(CCN2CC1CC1)[C@H]5O4 [nor-BNI, Nor-binaltorphimine]
[10]
  effect on U50488-induced decrease in recognition index: prevented

## spirobutyrolactone Sal B
[7]
  formaldehyde-induced paw edema: significantly reduced
  nociceptive phase of pain: did not reduce
[7]; intraplantar 2% formaldehyde
  antinociceptive effects, inflammatory phase: potent antinociceptive effects

## COC(=O)[C@@H]1C[C@H](OS(C)(=O)=O)C(=O)[C@H]2[C@@]1(C)CC[C@H]1C(=O)O[C@H](c3ccoc3)C[C@]21C [Mesyl Sal B, (2S,4aR,6aR,7R,9S,10aS,10bR)-9-(methanesulfonyloxy)-2-(3-furanyl)dodecahydro-6a, 10b-dimethyl-4,10-dioxy-2H-naptho [2,1-c]pyran-7-carboxylic acid methyl ester]
[11]
  EC50: 0.12 nM
[12]
  Bias Factor: 0.61
  EC50: 236 nM
  β-Arrestin Recruitment (PathHunter) Efficacy: 90.2%
[13]
  cocaine-induced hyperactivity: suppressed
[14]
  expression of cocaine behavioral sensitization: suppresses
[15]
  Emax: 38%
  EC50 (antinociception, % MPE): 3.0 mg/kg
[16]; mouse, in vivo
  pain score: small but significant decrease
  phase 1 nociceptive pain (0–15 min): minimally effective
  phase 2 inflammatory pain (20–60 min): reducing phase 2 pain at the 30 min time point
[16]; mouse, in vivo, ip, 2 mg/kg
  formaldehyde-induced paw edema: no significant reduction
[17]
  sucrose intake (sucrose-reinforced responding): no effect
[18]
  swimming time: significant decrease
  time spent immobile: significant increase
[19]
  Ki: 2.3 ± 0.1 nM
[10]
  recognition index (RI) value: No change
[20]; mouse, in vivo
  motor impairment (latency to fall): no motor impairment
[21]
  time spent in the drug-paired chamber: did not significantly alter
[22]; rat, in vivo
  taste aversion (saccharin consumption on test day): did not induce taste aversion
[23]; rat, in vivo
  time spent in the open arm: no effect
[6]; mouse, in vivo, ip
  duration of action (antinociceptive effects): 60 min
[6]; mouse, in vivo
  time at which effects are seen (onset of action): 30 to 60 min
[1]; rat, in vivo
  cocaine-prime induced reinstatement of drug seeking: attenuate
[24]
  alcohol intake: attenuates
[25]
  sucrose or saccharin intake: no effect
[26]; rat, in vivo
  locomotor activity, spontaneous open field: no significant effect

## COC(=O)[C@@H]1C[C@H](OC(C)=O)C(=O)[C@H]2[C@@]1(C)CC[C@H]1C(=O)O[C@H](c3ccoc3)C[C@]21C [Sal A, Salvinorin A]
[12]
  Bias Factor: 0.35
[15]
  Emax: 87%
  EC50 (antinociception, % MPE): 2.1 mg/kg
[16]; [37]
  phase 1 nociceptive pain (0–15 min): significant attenuation
  phase 2 inflammatory pain (20–60 min): significant attenuation
[16]; 60 min after formaldehyde, Sal A 2 mg/kg i.p.
  formaldehyde-induced paw edema: significantly reduced
[20]; 2 mg/kg i.p., at 2 and 15 min
  motor impairment (latency to fall): significant motor impairment
[22]; 0.3 mg/kg
  taste aversion (saccharin consumption on test day): no effect
[23]; 1 mg/kg
  time spent in the open arm: significantly decreased
[27]
  locomotor activity produced by acute cocaine administration: increased
[28]
  cocaine-induced behavioral sensitization: attenuated
[6]; mice, i.p.
  duration of action (antinociceptive effects): 15 min
[29]
  anxiety-related effects: anxiolytic effects
[1]; rats
  cocaine-prime induced cocaine seeking: attenuate
  cocaine-prime induced reinstatement of drug seeking: attenuate
[30]
  signaling bias: balanced agonist
[4]; human receptor
  signaling bias: significantly biased towards the β-arrestin2 pathway
[31]
  sucrose self-administration: no effects
[9]
  motor coordination in rotarod performance test: induced motor incoordination
[32]
  aversion in CTA experiments: no aversion
[3]; 0.25–2 mg/kg, rats
  depressive effects: induces depressive effects
[3]; 10–1000 μg/kg, rats
  anti-depressive and anxiolytic effects: potent anti-depressive and anxiolytic effects
[33]
  climbing behavior (motor coordination): rapidly disrupt climbing behavior
[34]
  sedation: sedative effect
[26]; 0.3 mg/kg, rats
  spontaneous locomotion, open field: did not alter
[35]
  place conditioning at higher doses: aversion
[36]
  P-glycoprotein efflux pump substrate: substrate

## CC[C@]12CCN(CC3CC3)[C@H](C(=O)c3ccc(O)cc31)[C@@H]2C [ethylketazocine]
[8]
  cocaine self-administration: decreased
  food reinforcements: decreased
